From article PMC7016291 (Acta Pharmaceutica Sinica. B, 2019)

Key:
[1] = test system: HIV-2 (ROD); experiment: Anti-HIV activity in MT-4 cells; type: cell-based; details: Human immunodeficiency virus 2, MT4, read-out: EC50 ROD
[2] = target: WT HIV-1 RT (Human immunodeficiency virus type 1 group M subtype B, UniProt P03366); experiment: HIV-1 RT inhibition assay; type: biochemical
[3] = Cytotoxicity in uninfected MT-4 cells; type: cell-based; details: human, uninfected MT-4 cells
[4] = target: HIV-1 RT RNase H (Human immunodeficiency virus type 1 group M subtype B, UniProt P03366); experiment: HIV-1 RT RNase H inhibition; type: biochemical

| Compound | EC50 [1] | IC50 [2] | CC50 at 4 days [3] | IC50 [4] | activity against RNase H [4] |
| --- | --- | --- | --- | --- | --- |
| Cc1cc(-c2ccc(C#N)cc2)cc(C)c1Oc1nc(Nc2ccc(C#N)cc2)nc(N2CCCC2CO)n1 (stereo not shown) [Compound 5g, 4ʹ-((4-((4-Cyanophenyl)amino)-6-(2-(hydroxymethyl)pyrrolidin-1-yl)-1,3,5-triazin-2-yl)oxy)-3ʹ,5ʹ-dimethyl-[1,1ʹ-biphenyl]-4-carbonitrile] | 1.56 ± 0.49 µM | 0.28 µM | > 125 µM | > 1160 µM | – |
| Cc1cc(-c2ccc(C#N)cc2)cc(C)c1Nc1nc(Nc2ccc(C#N)cc2)nc(NC2CC2)n1 [Compound 6a, 4ʹ-((4-((4-Cyanophenyl)amino)-6-(cyclopropylamino)-1,3,5-triazin-2-yl)amino)-3ʹ,5ʹ-dimethyl-[1,1ʹ-biphenyl]-4-carbonitrile] | 26.5 µM | 0.0741 µM | > 125 µM | > 1270 µM | – |
| COC(=O)[C@@H]1CCCN1c1nc(Nc2ccc(C#N)cc2)nc(Oc2c(C)cc(-c3ccc(C#N)cc3)cc2C)n1 [Compound 5d, Methyl (4-((4ʹ-cyano-3,5-dimethyl-[1,1ʹ-biphenyl]-4-yl)oxy)-6-((4-cyanophenyl)-amino)-1,3,5-triazin-2-yl)-L-prolinate] | > 2.23 µM | 0.273 µM | 2.23 ± 1.09 µM | > 1100 µM | – |
| Cc1cc(-c2ccc(C#N)cc2)cc(C)c1Nc1nc(Nc2ccc(C#N)cc2)nc(N2CCCC2CO)n1 (stereo not shown) [Compound 6j, 4ʹ-((4-((4-Cyanophenyl)amino)-6-(2-(hydroxymethyl)pyrrolidin-1-yl)-1,3,5-triazin-2-yl)amino)-3ʹ,5ʹ-dimethyl-[1,1ʹ-biphenyl]-4-carbonitrile] | 15.7 µM | 0.157 µM | 62.9 ± 7.99 µM | > 1160 µM | – |
| Cc1cc(-c2ccc(C#N)cc2)cc(C)c1Oc1nc(Nc2ccc(C#N)cc2)nc(N2CCOCC2)n1 [Compound 5e, 4ʹ-((4-((4-Cyanophenyl)amino)-6-morpholino-1,3,5-triazin-2-yl)oxy)-3ʹ,5ʹ-dimeth-yl-[1,1ʹ-biphenyl]-4-carbonitrile] | 3.61 ± 0.55 µM | 0.195 µM | > 125 µM | 659 µM | slight activity |
| Cc1cc(-c2ccc(C#N)cc2)cc(C)c1Oc1nc(NCC2CCOC2)nc(Nc2ccc(C#N)cc2)n1 (stereo not shown) [Compound 5c, 4ʹ-((4-((4-Cyanophenyl)amino)-6-(((tetrahydrofuran-3-yl)methyl)amino)-1,3,5-triazin-2-yl)oxy)-3ʹ,5ʹ-dimethyl-[1,1ʹ-biphenyl]-4-carbonitrile] | 1.01 ± 0.21 µM | 0.216 µM | > 125 µM | > 1160 µM | – |
| Cc1cc(-c2ccc(C#N)cc2)cc(C)c1Nc1nc(Nc2ccc(C#N)cc2)nc(N2CCC(O)CC2)n1 [Compound 6l, 4ʹ-((4-((4-Cyanophenyl)amino)-6-(4-hydroxypiperidin-1-yl)-1,3,5-triazin-2-yl)-amino)-3ʹ,5ʹ-dimethyl-[1,1ʹ-biphenyl]-4-carbonitrile] | > 5.71 µM | 0.223 µM | 5.71 ± 3.93 µM | > 1160 µM | – |
| Cc1cc(-c2ccc(C#N)cc2)cc(C)c1Nc1nc(NCCN2CCOCC2)nc(Nc2ccc(C#N)cc2)n1 [Compound 6m, 4ʹ-((4-((4-Cyanophenyl)amino)-6-((2-morpholinoethyl)amino)-1,3,5-triazin-2-yl)-amino)-3ʹ,5ʹ-dimethyl-[1,1ʹ-biphenyl]-4-carbonitrile] | > 13.9 µM | 0.176 µM | 13.9 ± 10.7 µM | > 995 µM | – |
| Cc1cc(-c2ccc(C#N)cc2)cc(C)c1Nc1nc(NCCN2CCN(C)CC2)nc(Nc2ccc(C#N)cc2)n1 [Compound 6n, 4ʹ-((4-((4-Cyanophenyl)amino)-6-((2-(4-methylpiperazin-1-yl)ethyl)amino)-1,3,5-triazin-2-yl)amino)-3ʹ,5ʹ-dimethyl-[1,1ʹ-biphenyl]-4-carbonitrile] | > 2.34 µM | 0.156 µM | 2.34 ± 0.64 µM | > 1070 µM | – |
| Cc1cc(-c2ccc(C#N)cc2)cc(C)c1Oc1nc(Nc2ccc(C#N)cc2)nc(N2CCC(O)CC2)n1 [Compound 5i, 4ʹ-((4-((4-Cyanophenyl)amino)-6-(4-hydroxypiperidin-1-yl)-1,3,5-triazin-2-yl)-oxy)-3ʹ,5ʹ-dimethyl-[1,1ʹ-biphenyl]-4-carbonitrile] | 1.51 ± 0.26 µM | 0.282 µM | 14.9 ± 7.89 µM | 500 µM | slight activity |
| COC(=O)[C@@H]1CCCN1c1nc(Nc2ccc(C#N)cc2)nc(Nc2c(C)cc(-c3ccc(C#N)cc3)cc2C)n1 [Compound 6f, Methyl (4-((4ʹ-cyano-3,5-dimethyl-[1,1ʹ-biphenyl]-4-yl)amino)-6-((4-cyanophenyl)amino)-1,3,5-triazin-2-yl)-L-prolinate] | > 125 µM | 0.253 µM | > 125 µM | > 1100 µM | – |
| Cc1cc(-c2ccc(C#N)cc2)cc(C)c1Oc1nc(Nc2ccc(C#N)cc2)nc(N2CCNCC2)n1 [Compound 5f, 4ʹ-((4-((4-Cyanophenyl)amino)-6-(piperazin-1-yl)-1,3,5-triazin-2-yl)oxy)-3ʹ,5ʹ-dimethyl-[1,1ʹ-biphenyl]-4-carbonitrile] | > 9.8 µM | 0.482 µM | 9.8 ± 7.31 µM | > 1190 µM | – |
| Cc1cc(-c2ccc(C#N)cc2)cc(C)c1Nc1nc(Nc2ccc(C#N)cc2)nc(NC2CCOCC2)n1 [Compound 6c, 4ʹ-((4-((4-Cyanophenyl)amino)-6-((tetrahydro-2H-pyran-4-yl)amino)-1,3,5-triazin-2-yl)amino)-3ʹ,5ʹ-dimethyl-[1,1ʹ-biphenyl]-4-carbonitrile] | 40 µM | 0.246 µM | > 125 µM | > 1160 µM | – |
| Cc1cc(-c2ccc(C#N)cc2)cc(C)c1Oc1nc(NCCN2CCN(C)CC2)nc(Nc2ccc(C#N)cc2)n1 [Compound 5k, 4ʹ-((4-((4-Cyanophenyl)amino)-6-((2-(4-methylpiperazin-1-yl)ethyl)amino)-1,3,5-triazin-2-yl)oxy)-3ʹ,5ʹ-dimethyl-[1,1ʹ-biphenyl]-4-carbonitrile] | > 14.1 µM | 0.658 µM | 14.1 ± 3.47 µM | > 1070 µM | – |
| Cc1cc(-c2ccc(C#N)cc2)cc(C)c1Nc1nc(Nc2ccc(C#N)cc2)nc(N2CCOCC2)n1 [Compound 6g, 4ʹ-((4-((4-Cyanophenyl)amino)-6-morpholino-1,3,5-triazin-2-yl)amino)-3ʹ,5ʹ-dimethyl-[1,1ʹ-biphenyl]-4-carbonitrile] | 39.9 µM | 0.137 µM | > 125 µM | > 1190 µM | – |
| Cc1cc(-c2ccc(C#N)cc2)cc(C)c1Oc1nc(Nc2ccc(C#N)cc2)nc(NC2CCOCC2)n1 [Compound 5b, 4ʹ-((4-((4-Cyanophenyl)amino)-6-((tetrahydro-2H-pyran-4-yl)amino)-1,3,5-triazin-2-yl)oxy)-3ʹ,5ʹ-dimethyl-[1,1ʹ-biphenyl]-4-carbonitrile] | 2.03 ± 0.94 µM | 0.263 µM | > 125 µM | > 1160 µM | – |
| Cc1cc(-c2ccc(C#N)cc2)cc(C)c1Nc1nc(Nc2ccc(C#N)cc2)nc(N2CCNCC2)n1 [Compound 6h, 4ʹ-((4-((4-Cyanophenyl)amino)-6-(piperazin-1-yl)-1,3,5-triazin-2-yl)amino)-3ʹ,5ʹ-dimethyl-[1,1ʹ-biphenyl]-4-carbonitrile] | > 9.24 µM | 0.341 µM | 9.24 ± 5.5 µM | > 1200 µM | – |
